Assay results published in ChEMBL document CHEMBL4828722, “The synthesis and bioactivity of pyrrolo[2,3-d]pyrimidine derivatives as tyrosine kinase inhibitors for NSCLC cells with EGFR mutations” (Eur J Med Chem, 2021).

Assays:
[1] = Potency index, ratio of avitinib IC50 to test compound IC50 for cytotoxicity against human BEAS-2B cells assessed as reduction in cell viability measured after 48 hrs by CCK8 assay; type: cell-based; details: read-out: Ratio IC50
[2] = Potency index, ratio of avitinib IC50 to test compound IC50 for cytotoxicity against human HBE cells assessed as reduction in cell viability measured after 48 hrs by CCK8 assay; type: cell-based; details: read-out: Ratio IC50
HCC827 = assay: Potency index, ratio of avitinib IC50 to test compound IC50 for cytotoxicity against human HCC827 cells harboring EGFR del E746-A750 mutant assessed as reduction in cell viability measured after 48 hrs by CCK8 assay; type: functional
[3] = Selectivity index, ratio of IC50 for cytotoxicity against human NCI-H460 cells harboring wild type EGFR to IC50 for cytotoxicity against human HCC827 cells harboring EGFR del E746-A750 mutant assessed as reduction in cell viability measured after 48 hrs by CCK8 assay

For C=CC(=O)Nc1cccc(Oc2nc(Nc3ccc(N4CCN(C)CC4)c(N)c3)nc3[nH]ccc23)c1, the selectivity ratio at 48 h [1] was 2, the selectivity ratio at 48 h [2] was 2 and the “Ratio IC50” value (HCC827) was 2. The “Selectivity Index” value [3] was 579.7.
